According to paper PMC3206016, “Putting into Practice Domain-Linear Motif Interaction Predictions for Exploration of Protein Networks” (PLoS ONE, 2011):
Values joined by “and” are separate entries in the source; they are usually repeats but may differ in a detail not shown here. Equal values may be shown once. Read-outs that look alike come from different tables or passages of the source. Ends that are not written are not given here.

Legend:
Experiment in all cases: SPR binding of MBP-PDZ analyte to immobilised biotinylated peptides
[1] = target: T1, SCRIB-3/4 PDZ domain (Homo sapiens, UniProt Q14160); details: SPR Biacore 2000, 25 C, steady state, 1:1 binding isotherm, MBP-PDZ 0-30 µM, to be considered with caution
T1 construct: cDNA bearing residues 997–1093, 1097–1193 and 997–1193 of human SCRIB (Uniprot acc.: Q14160-1); made in house; host or cells: E. coli BL21 DE3
T1 sequence (Q14160 997-1093 isoform Q14160-1): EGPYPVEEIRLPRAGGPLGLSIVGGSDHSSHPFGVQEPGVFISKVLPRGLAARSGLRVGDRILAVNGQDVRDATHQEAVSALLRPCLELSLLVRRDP
Description: (§1) We opted for the surface plasmon resonance (SPR) method to measure these 190 (19 proteins×2 peptide versions×5 PDZ constructs) interactions. In SPR various concentrations of “analytes” (here, PDZ domains fused to the Maltose Binding Protein (MBP)) flow over surfaces presenting attached “ligands” (here, biotinylated peptides). The amount of analyte interacting with the ligand is measured and quantified in response units (RU). The intensity of this signal is proportional to the binding strength of the assayed interaction (Figure 5A). K [drawing 13] were obtained using a 1∶1 interaction model. However, these calculated K [drawing 14] were rather inaccurate especially for weak interactions. Therefore, we preferred to rank the binding strengths of the 190 interactions using normalised RU signals at equilibrium ( [drawing 15] ) rather than K [drawing 16] (see Methods for details). These normalised [drawing 17] values were plotted in form of a heat map (Figure 5B).
(§2) The cDNA encoding residues 448–572 and 613–752 of mouse MAGI-1 (UniProt acc.: Q6RHR9-1) encoding for MAGI1-2/6 (100% identical to human MAGI1-2/6) and MAGI1-3/6 (99% identical to human MAGI1-3/6) PDZ domains, respectively, were inserted into the NcoI/KpnI sites of the pETM-41 expression vector (EMBL) containing a 6×His-MBP tag followed by a TEV protease cleavage site. A similar cloning strategy was adopted for cDNA bearing residues 997–1093, 1097–1193 and 997–1193 of human SCRIB (Uniprot acc.: Q14160-1) encoding for SCRIB-3/4, SCRIB-4/4 PDZ domains and SCRIB-34/4 tandem PDZ construct, respectively.
(§3) Data were collected on a Biacore 2000 instrument (Biacore AB/GE Healthcare Bio-Sciences Corp., Piscataway, NJ, USA) at 25 [drawing 74] C. SPR experiments (ligand immobilisation and binding measurements) have been performed as described in Fournane et al.. Briefly, biotinylated peptides (instead of GST-fused recombinant peptides) were immobilised on CM5 sensorchips on which Neutravidin was previously attached. The MBP-PDZ domain analyte was injected at 8 to 10 different concentrations ranging from 0 up to 30 [drawing 75] M. Data were processed using the BiaEvaluation 3.2 software (Biacore AB/GE Healthcare Bio-Sciences Corp.) using “double referencing” [78] in which sensorgrams were corrected for buffer effects and bulk refractive index changes.
(§4) The steady-state binding signal ( [drawing 76] ) was derived by averaging the signals in a five second window at equilibrium. Steady-state analysis was performed by fitting the average signal [drawing 77] as a function of total MBP-PDZ concentrations, assuming a simple 1∶1 interaction binding isotherm model. […] Reasons for this inaccuracy are likely to be the following: 1. As previously described, several repetitions of all the measurements are required to determine accurate K [drawing 81] . In our case, such repetitions were not achievable in reasonable time due to the large amount of interactions measured in this study. 2. The highest injected analyte concentration restricts the maximal K [drawing 82] (weakest interaction) that can be accurately obtained. 3. A K [drawing 83] is estimated based on a mathematical extrapolation of observed [drawing 84] signals leading to additional uncertainty. Based on these reasons, we considered the calculated K [drawing 85] not as accurate enough to be used for absolute binding strength comparison in this study. We rather performed a relative analysis of binding strengths using directly [drawing 86] signals which are not biased by any mathematical assumption. We focussed on [drawing 87] signals obtained at 10 [drawing 88] M MBP-PDZ concentration, which have been systematically measured in duplicate. The [drawing 89] signal is directly proportional to the molecular weight of the analyte and the amount of immobilised ligand. Therefore, the [drawing 90] signals were normalised taking those into account before being used for binding strength comparison. […]

[2] = target: T2, SCRIB-34/4 tandem PDZ construct (Homo sapiens, UniProt Q14160); details: SPR Biacore 2000, 25 C, steady state, 1:1 binding isotherm, MBP-PDZ 0-30 µM, to be considered with caution
T2 construct: residues 997–1093, 1097–1193 and 997–1193 of human SCRIB (Uniprot acc.: Q14160-1); made in house; host or cells: E. coli BL21 DE3
T2 sequence (Q14160 997-1193 isoform Q14160-1): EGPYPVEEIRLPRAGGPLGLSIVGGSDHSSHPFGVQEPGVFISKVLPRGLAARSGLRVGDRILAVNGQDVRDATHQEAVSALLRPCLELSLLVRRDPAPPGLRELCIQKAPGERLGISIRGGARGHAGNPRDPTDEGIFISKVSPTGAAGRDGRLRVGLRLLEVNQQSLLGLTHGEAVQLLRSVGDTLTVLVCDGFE
Description: as §1, §2, §3, §4

[3] = target: T3, SCRIB-4/4 PDZ domain (Homo sapiens, UniProt Q14160); details: SPR Biacore 2000, 25 C, steady state, 1:1 binding isotherm, MBP-PDZ 0-30 µM, to be considered with caution
T3 construct: residues 997–1093, 1097–1193 and 997–1193 of human SCRIB (Uniprot acc.: Q14160-1); made in house; host or cells: E. coli BL21 DE3
T3 sequence (Q14160 1097-1193 isoform Q14160-1): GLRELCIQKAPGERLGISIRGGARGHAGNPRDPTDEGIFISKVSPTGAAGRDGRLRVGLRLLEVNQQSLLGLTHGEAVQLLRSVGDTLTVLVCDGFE
Description: as §1, §2, §3, §4

[4] = target: T4, MAGI1-2/6 PDZ domain (Mus musculus, UniProt Q6RHR9)
T4 construct: The cDNA encoding residues 448–572 and 613–752 of mouse MAGI-1 (UniProt acc.: Q6RHR9-1) encoding for MAGI1-2/6; made in house; host or cells: E. coli BL21 DE3
Description: as §1, §2, §3, §4

[5] = target: T5, MAGI1-3/6 PDZ domain (Mus musculus, UniProt Q6RHR9); details: SPR Biacore 2000, 25 C, steady state, 1:1 binding isotherm, MBP-PDZ 0-30 µM, to be considered with caution
T5 construct: The cDNA encoding residues 448–572 and 613–752 of mouse MAGI-1 (UniProt acc.: Q6RHR9-1); made in house; host or cells: E. coli BL21 DE3
Description: as §1, §2, §3, §4

[6] = SPR Biacore 2000, 25 C, steady state, 1:1 binding isotherm, MBP-PDZ 0-30 µM, to be considered with caution, read-out: tentative KD

T4 sequence (Q6RHR9 448-572): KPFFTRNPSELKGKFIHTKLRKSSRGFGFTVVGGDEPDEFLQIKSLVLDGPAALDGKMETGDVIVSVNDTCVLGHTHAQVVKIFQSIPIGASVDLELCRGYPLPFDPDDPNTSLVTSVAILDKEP
T5 sequence (Q6RHR9 613-752): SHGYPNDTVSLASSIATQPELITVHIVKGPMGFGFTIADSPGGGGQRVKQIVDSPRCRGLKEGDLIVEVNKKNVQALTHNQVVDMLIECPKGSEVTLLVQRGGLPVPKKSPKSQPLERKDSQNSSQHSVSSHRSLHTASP

Q: With GGWVEKETYY [ATP1A1_10] as the sequence, how does the Kd ([1]; read-out: tentative KD) read?
A: The Kd was 88 µM.

Q: How did the Kd ([2]; read-out: tentative KD) turn out when GSGAGSETSV [VANG2_05] was run?
A: The Kd was 4 µM.

Q: KDECVIATEV [DLL1_10] was tested. Which Kd ([3]; read-out: tentative KD) did it give?
A: The Kd was 88 µM.

Q: How did the Kd [4, 6] turn out when KPGKGSETVV [FZD4_10] was run?
A: The Kd was 23 µM.

Q: How did the Kd [4, 6] turn out when NPDALPETLV [ARHGAP6_10] was run?
A: The Kd was 18 µM.

Q: For NRVDSKETEC [ADAM17_10], which Kd ([2]; read-out: tentative KD) is on record?
A: The Kd was 8 µM.

Q: PMESGICTIV [TTC24_10] was tested. Which Kd ([5]; read-out: tentative KD) did it give?
A: The Kd was 37 µM.

Q: Which Kd ([2]; read-out: tentative KD) does the source give for QDEKVKESYV [ABC1_10] here?
A: The Kd was 8 µM.

Q: With QGRWDHETIV [TMEM215_10] as the sequence, how does the Kd ([2]; read-out: tentative KD) read?
A: The Kd was 9 µM.

Q: How did the Kd ([5]; tentative KD) turn out when “RSSRTRRETQV [16E6L/V, reference compound]” was run?
A: Its Kd is 69 µM and 76 µM and 202 µM.

Q: And the Kd ([1]; tentative KD)?
A: The Kd was 18 µM and 41 µM and 32 µM.

Q: What about the Kd ([2]; tentative KD) of the same sequence?
A: The Kd was 3 µM and 4 µM.

Q: And the Kd ([3]; tentative KD)?
A: The Kd was 47 µM and 55 µM.

Q: SGGKRKETLV [NET1_10] was tested. Which Kd ([4]; Table S3, column this study, SPR, read-out: this study (Kd)) did it give?
A: The Kd was 3 µM.

Q: What about the Kd ([5]; read-out: tentative KD) of the same sequence?
A: The Kd was 37 µM.

Q: For SVWLRKETRV [CYSLTR2_10], which Kd ([2]; read-out: tentative KD) is on record?
A: Its Kd is 15 µM.

Q: What about the Kd ([3]; read-out: tentative KD) of the same sequence?
A: Its Kd is 202 µM.

Q: Which results are given for VMRLQSETSV [VANG2_10]?
A: Kd ([1]; read-out: tentative KD): 12 µM; Kd ([2]; read-out: tentative KD): 5 µM
